Results reported in the Bradley open melting point set (2014).
Values joined by “and” are separate entries in the source; they are usually repeats but may differ in a detail not shown here. Equal entries are not always repeated.

Row | melting point | Structure (SMILES)
1 | 69 °C | O=C(Oc1ccccc1)c1ccccc1 [phenyl benzoate]
2 | 154 °C | OC[C@H]1O[C@@H](Oc2ccccc2)[C@H](O)[C@@H](O)[C@H]1O [phenyl beta-D-galactopyranoside]
3 | 69 °C | C=CS(=O)(=O)c1ccccc1 [phenyl vinyl sulfone]
4 | 70 °C | O=C(Oc1ccccc1)c1ccccc1 [phenyl_benzoate]
5 | 105 °C | CCCCC1C(=O)N(c2ccccc2)N(c2ccccc2)C1=O [phenylbutazone]
6 | 112 °C | N#CCS(=O)(=O)c1ccccc1 [phenylsulfonylacetonitrile]
7 | 128 °C | NC(=S)N1CCCCC1 [piperidine-1-thiocarboxamide]
8 | 119 °C | COc1cc(C(=O)OCc2cccc(COC(=O)c3cc(OC)c(OC)c(OC)c3)n2)cc(OC)c1OC [pirozadil]
9 | 285 °C | COc1cc2nc(N3CCN(C(=O)c4ccco4)CC3)nc(N)c2cc1OC [prazosin]
10 | 240 °C | O=C\1\C=C/[C@]4(/C(=C/1)CC[C@@H]2[C@@H]4[C@@H](O)C[C@@]3([C@@](O)(C(=O)CO)CC[C@@H]23)C)C [prednisolone]
11 | 198 °C | CCCN(CCC)S(=O)(=O)c1ccc(C(=O)O)cc1 [probenecid]
12 | 126 °C | CC(=O)[C@H]1CC[C@H]2[C@@H]3CCC4=CC(=O)CC[C@]4(C)[C@H]3CC[C@]12C [progesterone]
13 | 221 °C | O=C(O)[C@@H]1CCCN1 [proline]
14 | 60 °C | CC(CN1c2ccccc2Sc2ccccc21)N(C)C (stereo not drawn) [promethazine]
15 | -80 °C | CCC=O [propanal]
16 | 106 °C | CCCNC(=O)C(C(F)(F)F)C(F)(F)F [propanamide, 3,3,3-trifluoro-N-propyl-2-(trifluoromethyl)-]
17 | -81 °C | CCC=O [propionaldehyde]
18 | 162 °C | CC(C)NCC(O)COc1cccc2ccccc12 (stereo not drawn) [propranolol] [listing 1 of 2 here]
19 | 162 °C | CC(C)NCC(O)COc1cccc2ccccc12 (stereo not drawn) [propranolol] [listing 2 of 2 here]
20 | 67 °C | CCCCC[C@H](O)/C=C/[C@H]1[C@H](O)CC(=O)[C@@H]1C/C=C\CCCC(=O)O [prostaglandin E2]
21 | 133 °C | Oc1cccc(O)c1O [pyrogallol]
22 | 177 °C | C=C[C@H]1C[N@@]2CC[C@H]1C[C@H]2[C@H](O)c1ccnc2ccc(OC)cc12 [quinine]
23 | 295 °C | O=C(O)c1ccc2ncccc2c1 [quinoline-6-carboxylic acid]
24 | 69 °C | CNC(=C[N+](=O)[O-])NCCSCc1ccc(CN(C)C)o1 [ranitidine]
25 | 111 °C | Oc1cccc(O)c1 [resorcinol]

Row | melting point | Structure (SMILES)
26 | 280 °C | O=C2/N=C\1/N(c3cc(c(cc3/N=C/1C(=O)N2)C)C)CC(O)C(O)C(O)CO (stereo not drawn) [riboflavin]
27 | 140 °C | NC(=O)c1ccccc1O [salicylamide]
28 | 133 °C | O=C(O)CCCCCCCCC(=O)O [sebacic_acid]
29 | -99 °C | CCC(C)OC(C)=O (stereo not drawn) [sec-butyl acetate]
30 | 111 °C | OC[C@@H](O)[C@@H](O)[C@H](O)[C@@H](O)CO [sorbitol]
31 | 29 °C | NCCCNCCCCNCCCN [spermine]
32 | -38 °C | CC(C)CCCC(C)CCCC(C)CCCCC(C)CCCC(C)CCCC(C)C (stereo not drawn) [squalane]
33 | -75 °C | CC(C)=CCC/C(C)=C/CC/C(C)=C/CC/C=C(\C)CC/C=C(\C)CCC=C(C)C [squalene]
34 | 235 °C | Cc1ccnc(NS(=O)(=O)c2ccc(N)cc2)n1 [sulfamerazine (polymorph 1)]
35 | 235 °C | Cc1ccnc(NS(=O)(=O)c2ccc(N)cc2)n1 [sulfamerazine]
36 | 200 °C | Cc1cc(C)nc(NS(=O)(=O)c2ccc(N)cc2)n1 [sulfamethazine] [listing 1 of 2 here]
37 | 200 °C | Cc1cc(C)nc(NS(=O)(=O)c2ccc(N)cc2)n1 [sulfamethazine] [listing 2 of 2 here]
38 | 182 °C | COc1ccc(NS(=O)(=O)c2ccc(N)cc2)nn1 [sulfamethoxypyridazine]
39 | 202 °C | Nc1ccc(S(=O)(=O)Nc2nccs2)cc1 [sulfathiazole] [listing 1 of 2 here]
40 | 202 °C | Nc1ccc(S(=O)(=O)Nc2nccs2)cc1 [sulfathiazole] [listing 2 of 2 here]
41 | 243 °C | Cc1cc(NS(=O)(=O)c2ccc(N)cc2)nc(C)n1 [sulfisomidine]
42 | 185 °C | CS(=O)c1ccc(cc1)/C=C3c2ccc(F)cc2C(CC(=O)O)=C3C (stereo not drawn) [sulindac]
43 | 184 °C | CC1=C(CC(=O)O)c2cc(F)ccc2/C1=C\c1ccc(S(C)=O)cc1 (stereo not drawn) [sulindac]
44 | 179 °C | CCN1CCCC1CNC(=O)c1cc(S(N)(=O)=O)ccc1OC (stereo not drawn) [sulpiride]
45 | -26 °C | CC(C)(C)Cl [tert-butyl chloride]
46 | -58 °C | CC(C)(C)c1ccccc1 [tert-butylbenzene]
47 | 24 °C | CCCCCCCCCCCCCC=O [tetradecyl_aldehyde]
48 | -85 °C | CCO[Si](OCC)(OCC)OCC [tetraethoxysilane]
49 | -82 °C | CC[Si](CC)(CC)CC [tetraethylsilane]
50 | 156 °C | O=C(O)c1c(F)c(F)c(F)c(F)c1C(=O)O [tetrafluorophthalic acid]

Row | melting point | Structure (SMILES)
51 | 62 °C | O=C1CCSCC1 [tetrahydro-4h-thiopyran-4-one]
52 | -108 °C | C1CCOC1 [tetrahydrofuran]
53 | 147 °C | OB(O)c1cccc2c1Sc1ccccc1S2 [thianthrene-1-boronic acid]
54 | 130 °C | OB(O)c1cccs1 [thiophene-2-boronic acid]
55 | 139 °C | O=C(O)c1ccsc1 [thiophene-3-carboxylic acid]
56 | 177 °C | NC(N)=S [thiourea]
57 | 212 °C | O=c1c2ccccc2sc2ccccc12 [thioxanthen-9-one]
58 | 188 °C | Cc1cn([C@H]2C[C@H](O)[C@@H](CO)O2)c(=O)[nH]c1=O [thymidine]
59 | 51 °C | Cc1ccc(C(C)C)c(O)c1 [thymol]
60 | 252 °C | Cc1cc(O)c(C(C)C)cc1C1(c2cc(C(C)C)c(O)cc2C)OC(=O)c2ccccc21 [thymolphthalein]
61 | 64 °C | C/C=C(\C)C(=O)O [tiglic acid]
62 | 164 °C | COc1ccc2c(C(=S)N(C)CC(=O)O)cccc2c1C(F)(F)F [tolrestat]
63 | 113 °C | OC/C(Br)=C(\Br)CO [trans-2,3-dibromo-2-butene-1,4-diol]
64 | 217 °C | O=C(O)/C=C/c1ccccc1O [trans-2-hydroxycinnamic acid]
65 | -88 °C | C/C=C/CCCCC [trans-2-octene] [listing 1 of 2 here]
66 | -88 °C | C/C=C/CCCCC [trans-2-octene] [listing 2 of 2 here]
67 | -136 °C | C/C=C/CC [trans-2-pentene]
68 | 180 °C | O=C(O)/C=C/c1cccc(Br)c1 [trans-3-bromocinnamic acid]
69 | 54 °C | CCCCC[C@H]1CC[C@H](C(=O)O)CC1 [trans-4-n-pentylcyclohexanecarboxylic acid]
70 | -94 °C | CCC/C=C/CCC [trans-4-octene]
71 | 135 °C | O=C(O)/C=C/c1ccccc1 [trans-cinnamic acid]
72 | -34 °C | CCCCB(CCCC)CCCC [tri-n-butylborane]
73 | -93 °C | CCCN(CCC)CCC [tri-n-propylamine]
74 | 316 °C | Nc1nc(N)c2nc(-c3ccccc3)c(N)nc2n1 [triamterene]
75 | 15 °C | CCCCCCCCCCCCC=O [tridecanal]

Row | Structure (SMILES) | melting point
76 | O=C(O)COc1ccccc1 [phenoxyacetic_acid] | 100 °C
77 | O=C(O)Cc1ccccc1 [phenylacetic acid] | 77.5 °C
78 | N#CCc1ccccc1 [phenylacetonitrile] | -24 °C
79 | C[C@]12CC[C@H](O)CC1=CC[C@@H]1[C@@H]2CC[C@]2(C)C(=O)CC[C@@H]12 [prasterone] | 140 °C
80 | C#CCO [propargyl alcohol] | -53 °C
81 | C#CCO [propargyl_alcohol] | -17 °C
82 | CCC(=O)c1ccccc1 [propiophenone] | 18 °C
83 | CCC(=O)OC(Cc1ccccc1)(c1ccccc1)C(C)CN(C)C (stereo not drawn) [propoxyphene] | 75 °C
84 | N#CCCCCCCCCC#N [sebaconitrile] | 6 °C
85 | CCC(C)C1(CC)C(=O)NC(=O)NC1=O (stereo not drawn) [secbutabarbital] | 166 °C
86 | O=C(CCCN1CCC2(CC1)C(=O)NCN2c1ccccc1)c1ccc(F)cc1 [spiperone] | 190 °C
87 | C[C@]12CCC(=O)C[C@@H]1CC[C@@H]1[C@@H]2CC[C@]2(C)[C@@H](O)CC[C@@H]12 [stanolone] | 181 °C
88 | CC(C)(C)OOC(=O)c1ccccc1 [tert-Butyl benzenecarboperoxoate] | 8 °C
89 | O=C5\C=C4/C(C3CCC2(C(CCC2OC(=O)Cc1ccccc1)C3CC4)C)(C)CC5 (stereo not drawn) [testosterone phenylacetate] | 129 °C
90 | O=C5\C=C3/[C@]([C@H]2CC[C@@]4([C@@H](OC(=O)CCc1ccccc1)CC[C@H]4[C@@H]2CC3)C)(C)CC5 [testosterone phenylpropionate] | 116 °C
91 | C[C@]12CC[C@H]3[C@@H](CCC4=CC(=O)CC[C@@]43C)[C@@H]1CC[C@@H]2O [testosterone] | 154 °C
92 | ClC(Cl)=C(Cl)Cl [tetrachloroethylene] | -22 °C
93 | ClC(Cl)(Cl)Cl [tetrachloromethane] | -23 °C
94 | O=C1OC(=O)c2c(Cl)c(Cl)c(Cl)c(Cl)c21 [tetrachlorophthalic anhydride] | 256 °C
95 | CN(C)C(=S)SSC(=S)N(C)C [tetramethylthiuram disulfide] | 150 °C
96 | C=CCC1(C2C=CCCC2)C(=O)NC(=S)NC1=O (stereo not drawn) [thialbarbital] | 148 °C
97 | c1ccsc1 [thiophene] | -38 °C (3×) and -38.2 °C and -38.3 °C (2×)
98 | Cc1ccc(N=C=O)cc1N=C=O [toluene-2,4-diisocyanate] | 21 °C
99 | Cc1ccccc1 [toluene] | -93 °C
100 | C1CC[C@H]2CCCC[C@@H]2C1 [trans-decahydronaphthalene] | -32 °C
101 | O=C(O)C(Br)(Br)Br [tribromoacetic acid] | 132 °C
102 | O=C(Cl)C(Cl)(Cl)Cl [trichloroacetyl chloride] [listing 1 of 2 here] | -146 °C
103 | O=C(Cl)C(Cl)(Cl)Cl [trichloroacetyl chloride] [listing 2 of 2 here] | -56.9 °C and -57 °C
